Laboratory results published in paper PMC4686210, “Binding of Cyclic Di-AMP to the Staphylococcus aureus Sensor Kinase KdpD Occurs via the Universal Stress Protein Domain and Downregulates the Expression of the Kdp Potassium Transporter” (Journal of Bacteriology, 2015).

Target: T1, KdpD (sensor histidine kinase KdpD, KdpD^Sa) (Staphylococcus aureus, UniProt Q2FWH7)
T1 construct: USP domain, amino acids E225 to F383, MBP fusion [MBP-KdpD(USP)]
Assay: DRaCALA with […]-c-di-AMP and purified MBP-KdpD(USP); cold nucleotide competition
Format: binding

T1 sequence (Q2FWH7 225-383): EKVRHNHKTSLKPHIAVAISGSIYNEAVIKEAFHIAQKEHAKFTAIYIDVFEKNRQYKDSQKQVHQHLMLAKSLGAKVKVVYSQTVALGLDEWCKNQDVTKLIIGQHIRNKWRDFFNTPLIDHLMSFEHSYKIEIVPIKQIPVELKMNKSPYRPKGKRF

SMILES: Nc1ncnc2c1ncn2[C@@H]1O[C@@H]2COP(=O)(O)O[C@H]3[C@@H](O)[C@H](n4cnc5c(N)ncnc54)O[C@@H]3COP(=O)(O)O[C@H]2[C@H]1O [c-di-AMP]
- Kd: 2000 ± 180 nM
